{"source": "patent US6461865B1", "about": "“Calreticulin-deficient cells” (priority 1997, dated 2002)", "format_in_all_cases": "cell-based, mouse", "key": {"ES cells": {"tested_on": "ES cells", "assay": "Cytosolic calcium measurement (fura-2) in ES cells", "conditions": "Ca2+-free medium", "experimental": "It has been reported that calreticulin can regulate inositol 1,4,5-trisphosphate (InsP3)-mediated calcium signaling in Xenopus oocytes^9. To more specifically examine the role of calreticulin in the storage and mobilization of calcium from InsP3-sensitive stores, we challenged ES cells with lysophosphatidic acid (LPA, 100 nM), which induces InsP3 release12 via heterotrimeric G-protein -mediated activation of phospholipase C. […] The magnitude of this transient was indistinguishable in parental and clone 29 cells (FIG. 4b). […] These observations imply that the stores depleted by LPA represent a subset of the thapsigargin-sensitive compartment.\nTo measure cytosolic free calcium, the cells were loaded with fura-2 by incubation with 0.5-10 μM of the precursor acetoxymethyl ester for 20 min. at 37° C. Fura-2 ratio fluorescence measurements were performed on a Nikon Diaphot TMD microscope (Nikon Canada) equipped with a 100 W Xenon lamp, a shutter/rotating mirror/fiber optic assembly (RatioMaster, Photon Technologies), a Fluor 40x/1.3 oil-immersion objective and a high-sensitivity photometer (D-104, PTI) interfaced to a 386 computer (NEC) via a 12 bit A/D board (Labmaster, National Instruments). […] The intracellular concentration of fura-2 was measured at the isosbestic wavelength (360 nm) and compared to standards. […]"}, "wild-type ES cells": {"tested_on": "wild-type ES cells", "assay": "Serum-free cell attachment assay on fibronectin, wild-type ES cells", "conditions": "peptide 0.5-1 mg/ml, antiserum 10 μg/ml", "experimental": "The adhesive capacities of the ES cell clones were assessed by quantitative cell attachment assays on fibronectin and laminin under serum-free conditions. […] ES cells lacking calreticulin also were impaired in their ability to adhere to anti-alpha5 beta1 integrin antibodies (FIG. 2a). The heterozygous clone (#34) was generally intermediate in its level of adhesion. None of the clones tested adhered to vitronectin (FIG. 2a). […] To ensure that the observed differences in cell adhesion were not due to differences in the level of expression of the relevant integrins, the cell surface levels of alpha5 beta1, alpha4, alpha6 and alphav beta3 integrins were assessed by flow cytometry. All clones tested expressed similar levels of integrin subunits (FIG. 2c).\nSerum-free adhesion assays are described elsewhere^5. 0.5-1 mg/ml GRGDSP [SEQ ID No: 1] or GRGESP [SEQ. ID No: 2] peptide (Gibco/BRL), 10 μg/ml rabbit anti-fibronectin receptor (Gibco/BRL) or 10 μg/ml rat anti-alpha6 (GoH3, AMAC, Inc.) was added where indicated. For flow cytometric analysis of integrin expression, 1×10^6 cells were incubated on ice for 30 min. with primary antibody; anti-FNR, anti-VNR (Gibco/BRL), anti-alpha6 (GoH3) or anti-alpha429 in PBS/0.1% sodium azide/2.0% fetal bovine serum. […] Cells were fixed in PBS/1.0% paraformaldehyde, pelleted, resuspended in PBS and analyzed on a FACScan (Becton Dickinson Immunocytometry Systems)."}, "[1]": {"tested_on": "calreticulin knock-out ES cells", "assay": "Adhesion of calreticulin knock-out ES cells to fibronectin", "experimental": "FIG. 4E Adhesion assays to Fibronectin as in FIG. 6. Where indicated 100 nM LPA or 100 nM Tg and anti-FNR antiserum (10 μg/ml) were added. Open bars, parental ES cells; closed bars, knock-out ES cells. All data are means +/− SEM of at least 3 experiments. It is conceivable that a transient increase in cytosolic [Ca^2+] shortly after integrin ligand binding is an important part of normal receptor post-occupancy events (eg. increases in avidity, cytoskeletal reorganization). To examine this possibility, we tested whether stimulation of down-stream events in integrin ‘outside-in’ signaling within calreticulin-null cells could compensate for their adhesion defect. […] Although not shown in FIG. 4, the response to LPA was dose-dependent. […] Serum-free adhesion assays are described elsewhere^5. 0.5-1 mg/ml GRGDSP [SEQ ID No: 1] or GRGESP [SEQ. ID No: 2] peptide (Gibco/BRL), 10 μg/ml rabbit anti-fibronectin receptor (Gibco/BRL) or 10 μg/ml rat anti-alpha6 (GoH3, AMAC, Inc.) was added where indicated. For flow cytometric analysis of integrin expression, 1×10^6 cells were incubated on ice for 30 min. with primary antibody; anti-FNR, anti-VNR (Gibco/BRL), anti-alpha6 (GoH3) or anti-alpha429 in PBS/0.1% sodium azide/2.0% fetal bovine serum. […] Cells were fixed in PBS/1.0% paraformaldehyde, pelleted, resuspended in PBS and analyzed on a FACScan (Becton Dickinson Immunocytometry Systems)."}}, "data": [{"compound": "C/C=C(/C)C(=O)O[C@H]1C(C)=C2[C@H]([C@@H]1OC(=O)CCCCCCC)[C@@](C)(OC(C)=O)C[C@H](OC(=O)CCC)[C@@]1(O)[C@H]2OC(=O)[C@@]1(C)O", "note": "[thapsigargin]", "values": [{"measurement": "Net Ca2+ release after prior LPA", "setting": "ES cells; added after LPA", "value": "induced a second, smaller burst of net Ca^2+ release"}]}, {"compound": "GRGDSP [GRGDSP peptides, (Gibco/BRL)]", "values": [{"measurement": "Wild-type ES cell adhesion to fibronectin", "setting": "wild-type ES cells", "value": "inhibited adhesion to fibronectin"}]}, {"compound": "lysophosphatidic acid [LPA]", "values": [{"measurement": "Cytosolic [Ca2+]i transient", "setting": "ES cells; 100 nM, parental and clone 29 cells", "value": "induced a rapid [Ca2+]i transient"}, {"measurement": "Adhesion of calreticulin knock-out cells to fibronectin", "setting": "[1]; 100 nM", "value": "significantly restored"}, {"measurement": "Dose dependence of the adhesion response of calreticulin knock-out cells", "setting": "[1]; data not shown in FIG. 4", "value": "dose-dependent"}]}]}
